Source: patent US11497788B2, “Supramolecular glycosaminoglycans” (Northwestern University, priority 2015, dated 2022)
“Also recorded” adds a separate entry of the source. Residues, ends and D or L forms follow the SMILES beside them. Groups on a side chain read outwards from the residue. *: point of attachment. X1 = CC(=O)NC1C(O)[C@H](O)C(COS(=O)(=O)O)O[C@H]1OCCn1cc(CCC(=O)*)nn1; X2 = O=C(O)C1O[C@@H](OCCn2cc(CCC(=O)*)nn2)C(O)C(O)[C@@H]1O; Acetyl(2-(HOCH2CH2OCH2CH2O)) = O=C(COCCOCCO)*; AEEA = NCCOCCOCC(=O)O; Propionyl = CCC(=O)*

Legend:
[1] = system: BMP-2, BMP-4, noggin, Shh, VEGF, FGF-1, FGF-2; assay: Surface plasmon resonance (SPR) binding to immobilized heparin binding GFs; set-up: species or system human (Noggin murine); conditions: analytes 50-500 nM; GFs immobilized on alginate surface; 25° C.
Procedure: (§1) Surface Plasmon Resonance: The binding interactions between PAs (analytes) and growth factors (ligands) were analyzed via surface plasmon resonance (SPR) using a ProteON XPR36 system (Bio-Rad Laboratories). PA samples were thermally annealed as described for Cryo-TEM. PA solutions were spun down, pipetted for homogeneous mixing, and sequentially diluted to appropriate concentrations using Tween buffer (Milli-Q water, 0.05% Tween-20). Lyophilized powders of GFs were reconstituted to 5 μM without any carrier proteins according to the manufacturer's instructions. BMP-2, BMP-4, Shh, VEGF, and FGF-2 were further diluted to 200 nM in ProteOn Acetate Buffer pH 5.5, while FGF-1 was diluted to 200 nM in ProteOn Acetate Buffer pH 4.5. Noggin was diluted to 300 nM in ProteOn Acetate Buffer pH 5.5.
GFs were immobilized on a ProteOn GLC-Chip via amino coupling as described previously, with slight modifications (37). First, the alginate surface was activated with a freshly prepared mixture of 20 mM 1-Ethyl-3-[3-dimethylaminopropyl]carbodiimide hydrochloride (EDC) and 5 mM N-hydroxysulfosuccinimide (Sulfo-NHS) in Milli-Q water (vertical flow cells, 30 μL/min, 3 min). Following, GFs were immobilized on vertical flow cells 1 to 5 by perfusing a freshly prepared 200 nM (or 300 nM) solution over the activated alginate surface (30 μL/min, 5 min). Blank buffer was perfused on vertical cell 6 as a reference. The remaining esters were deactivated with 1 M ethanolamine (30 μL/min, 3 min). The association and dissociation phases were performed at 25° C. in Tween buffer. Prior to each analyte injection, the horizontal flow cells 1 to 6 were regenerated with 10 mM NaOH (100 μL/min, 30 sec) and washed once with Tween buffer (30 μL/min, 3 min). Varied analyte concentrations were injected to horizontal flow cells 1 to 5, with flow cell 6 as a reference (30 μL/min, 5 min), followed by dissociation with Tween buffer (30 μL/min, 10 min). For analysis, SPR sensorgram from the reference flow cell was subtracted from all measurement flow cells. Interaction data were evaluated using the BIAEvaluation 4.1 software. […]

[2] = target: T1, BMP-2 (Homo sapiens, UniProt P12643); assay: BMP-2 stability assay (ELISA) in C2C12 culture; format: cell-based; conditions: 75 ng/mL BMP-2; 0, 3, 9, 24 h
T1 construct: purchased Medtronic Sofamor Danek (Minneapolis, Minn.)
T1 sequence (P12643 283-396): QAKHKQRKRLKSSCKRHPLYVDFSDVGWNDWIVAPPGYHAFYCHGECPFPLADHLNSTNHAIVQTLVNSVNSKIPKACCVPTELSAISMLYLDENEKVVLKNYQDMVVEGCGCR
Procedure: BMP-2 Stability Assay: C2C12 cells were seeded at 150,000 cells/mL (500 μL/well in a 48-well plate) and incubated overnight. Following, the media was replaced with treatment media (75 ng/mL BMP-2 in the presence/absence of PA 1, PA 4, and monosaccharide 1. The media was collected at 0, 3, 9, and 24 h and stored at −80° C. prior to BMP-2 quantification. In addition, the cell monolayers were lysed at the indicated time with a 100 μL of M-PER Mammalian Protein Extraction Reagent, supplemented with 1×Halt Protease Inhibitor Cocktail, and also stored at −80° C. prior to BMP-2 quantification. The amount of BMP-2 present in the media and cell extracts was assayed using a BMP-2 Quantikine ELISA kit (R&D Systems) according to the manufacturer's specifications.

[3] = target: T1, BMP-2; assay: SPR binding to BMP-2; conditions: azide-derivative, not assembled
Procedure: as §1
(§2) GFs were immobilized on a ProteOn GLC-Chip via amino coupling as described previously, with slight modifications (37). First, the alginate surface was activated with a freshly prepared mixture of 20 mM 1-Ethyl-3-[3-dimethylaminopropyl]carbodiimide hydrochloride (EDC) and 5 mM N-hydroxysulfosuccinimide (Sulfo-NHS) in Milli-Q water (vertical flow cells, 30 μL/min, 3 min). […] Interaction data were evaluated using the BIAEvaluation 4.1 software. […]

[4] = system: BMP-4 signaling in C2C12 cells; assay: C2C12 osteoblast differentiation with BMP-4, ALP activity; format: cell-based, mouse
Procedure: (§3) C2C12 Cell Culture: C2C12 mouse myoblasts (ATCC) were maintained in Dulbecco's Modified Eagle's Medium with high glucose and L-glutamine (DMEM, ATCC), supplemented with 100 U/mL of penicillin and 100 μg/mL streptomycin (P/S, Life Technologies) and 10% heat inactivated FBS (Life Technologies), and passaged at 80-90% confluence. Media was changed every 2 days. Passages 3 to 8 were used for experiments. Cells were grown at 37° C., 5% CO2 in a humidified atmosphere. Cells were detached following a 3 minute incubation at 37° C. with 0.05% Trypsin-EDTA (Life Technologies), then resuspended in DMEM (10% FBS). Unless stated otherwise, cells were seeded at 75,000 cells/mL (400 μL/well in a 48-well plate), and allowed to attach for a minimum of 3 hours prior to experiments.
C2C12 Osteoblast Differentiation: PA samples were thermally annealed as described for Cryo-TEM. PA solutions were spun down, pipetted for homogeneous mixing, then diluted to 1 mM with DMEM (no FBS). […] Cells were cultured for 3 days without changing the media, and osteoblast differentiation was assessed.
Alkaline Phosphatase Activity: Alkaline phosphatase (ALP) activity was measured as a marker of osteoblast differentiation (ref. 38; incorporated by reference in its entirety). […] The ALP activity was assessed by reading the OD at 630 nm with Cytation3 microplate reader (BioTek). […]

[5] = system: BMP-2 signaling in C2C12 cells; assay: C2C12 osteoblast differentiation with BMP-2, alkaline phosphatase (ALP) activity; format: cell-based, mouse; conditions: for effect on BMP-2 activity / osteoblast differentiation (in words) / level of ALP expression relative to BMP-2 alone (factor): C2C12, BMP-2 75 ng/mL
Procedure: as §3
C2C12 Osteoblast Differentiation: PA samples were thermally annealed as described for Cryo-TEM. PA solutions were spun down, pipetted for homogeneous mixing, then diluted to 1 mM with DMEM (no FBS). In a 1.5 mL microcentrifuge tube, PA solutions were further diluted with DMEM (5% FBS), gently vortexed, and appropriate amounts of GFs (20 μg/mL) were added to yield [PA]=125 μM and [GF]=375 ng/mL. For mixing, the microcentrifuge tube was gently inverted several times by hand. Following, cells were treated by adding a 100 μl, of the PA/GF mixture per well (48-well plate), yielding a final 500 μl, differentiation medium with [PA]=25 μM and [GF]=75 ng/mL. For controls, the initial 5 mM PA solution was substituted with either PBS alone (saline) or heparin in PBS at appropriate concentrations. Cells were cultured for 3 days without changing the media, and osteoblast differentiation was assessed.
Alkaline Phosphatase Activity: Alkaline phosphatase (ALP) activity was measured as a marker of osteoblast differentiation (ref. 38; incorporated by reference in its entirety). On day 3, media was removed, and cells were lysed with a 100 μL, of M-PER Mammalian Protein Extraction Reagent (Life Technologies), supplemented with 1×Halt Protease Inhibitor Cocktail (Thermo Fisher Scientific), for 30 minutes on an orbital shaker. A 20 μL, volume of the cell lysate was incubated with 200 μL, of the QUANTI-Blue colorimetric ALP assay (InvivoGen) for 30 minutes to 2 hours at 37° C., in duplicates. The ALP activity was assessed by reading the OD at 630 nm with Cytation3 microplate reader (BioTek). Data were normalized to the respective endogenous DNA levels using Quant-iT PicoGreen dsDNA Assay Kit (Life Technologies). Two separate experiments with 4 replicates each were averaged for statistical analysis. […]

[6] = target: T2, BMP-4 (Homo sapiens, UniProt P12644); assay: SPR binding to BMP-4; conditions: azide-derivative, not assembled
T2 construct: from E. coli were purchased from PeproTech, in their mature forms; purchased PeproTech; host or cells: E. coli
T2 sequence (P12644 293-408): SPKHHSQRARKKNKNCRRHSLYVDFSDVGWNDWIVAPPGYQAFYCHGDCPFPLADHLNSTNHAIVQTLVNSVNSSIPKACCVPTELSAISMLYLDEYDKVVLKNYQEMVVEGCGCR
Procedure: as §1, §2

[7] = Zeta potential measurements; format: physicochemical
Procedure: Zeta Potential Measurements: Zeta (ζ) potential was measured using a Malvern Zetasizer Nano ZS (n=3). PA samples were thermally annealed as described for Cryo-TEM. Following, PAs were diluted to 0.5 mM in DMEM. PA solutions were water-bath sonicated for 1 min prior to zeta potential measurement. Background reading from DMEM alone was subtracted from the final measurements.

Compound: 2-Azidoethyl 2-acetamido-3,4,6-tri-O-sulfo-2-deoxy-β-D-glycopyranoside [monosaccharide 1]
- binding to heparin binding GFs (SPR) [1]: essentially does not bind
- BMP-2 stability in cell culture media [2]: not
- binding to BMP-2 (SPR) [3]: bound neither
- amplification of BMP-4 signaling [4]: not to be the case
- effect on BMP-2 activity / osteoblast differentiation (in words) ([5]; 3 days): not to be the case
- binding to BMP-4 (SPR) [6]: bound neither

Compound: CCC(=O)N[C@H](C(=O)N[C@H](C(=O)N[C@@H](C)C(=O)N[C@@H](C)C(=O)N[C@@H](CCC(=O)O)C(=O)N[C@@H](CCC(=O)O)C(=O)N[C@@H](CCCCNC(=O)COCCOCCNC(=O)CCc1cn(CCO[C@@H]2OC(COS(=O)(=O)O)[C@@H](O)C(O)C2NC(C)=O)nn1)C(N)=O)C(C)C)C(C)C (stereo partly drawn) [PA 2, 6S-GlcNAc PA] (Propionyl-VVAAEEK([AEEA-X1])-NH2)
- zeta potential / net charge of nanofibers [7]: comparable zeta potentials
- increase in BMP-2 signaling (ALP activity) ([5]; nanofibers containing the monosulfated monosaccharide, density not stated, 25 μM PA, BMP-2 75 ng/mL): 3 fold

Compound: CCC(=O)N[C@H](C(=O)N[C@H](C(=O)N[C@@H](C)C(=O)N[C@@H](C)C(=O)N[C@@H](CCC(=O)O)C(=O)N[C@@H](CCC(=O)O)C(=O)N[C@@H](CCCCNC(=O)COCCOCCNC(=O)CCc1cn(CCO[C@@H]2OC(C(=O)O)[C@@H](O)C(O)C2O)nn1)C(N)=O)C(C)C)C(C)C (stereo partly shown) [PA 3, GlcA PA] (Propionyl-VVAAEEK([AEEA-X2])-NH2)
- zeta potential / net charge of nanofibers [7]: comparable zeta potentials
- effect on BMP-2 activity / osteoblast differentiation (in words) ([5]; 3 days): did not potentiate
- ALP activity, PA co-assembled with PA 6 ([5]; incorporated at the level of 10% or higher in PA 6, 25 μM PA, BMP-2 75 ng/mL): not to enhanced

Compound: CCC(=O)N[C@H](C(=O)N[C@H](C(=O)N[C@@H](C)C(=O)N[C@@H](C)C(=O)N[C@@H](CCC(=O)O)C(=O)N[C@@H](CCC(=O)O)C(=O)N[C@@H](CCCCNC(=O)COCCOCCO)C(N)=O)C(C)C)C(C)C [PA 5, OEG PA] (Propionyl-VVAAEEK(Acetyl(2-(HOCH2CH2OCH2CH2O)))-NH2)
- zeta potential / net charge of nanofibers [7]: screened the net negative charge
- effect on BMP-2 activity / osteoblast differentiation (in words) ([5]; 3 days): negligible effect

Compound: CCC(=O)N[C@H](C(=O)N[C@H](C(=O)N[C@@H](C)C(=O)N[C@@H](C)C(=O)N[C@@H](CCC(=O)O)C(=O)N[C@@H](CCC(=O)O)C(N)=O)C(C)C)C(C)C [PA 6, E2 PA] (Propionyl-VVAAEE-NH2)
- increase in ALP activity ([5]; PA 6 alone, 0% monosaccharide density, 25 μM PA, BMP-2 75 ng/mL, 3 days): 5 fold

Compound: Heparan sulfate [reference compound]
- effect on BMP-2 activity / osteoblast differentiation (in words) ([5]; 3 days): dose response increase
- level of ALP expression relative to BMP-2 alone (factor) ([5]; 3 days): 3

Compound: heparin [reference compound]
- binding to heparin binding GFs (SPR) [1]: moderate binding
- effect on BMP-2 activity / osteoblast differentiation (in words) ([5]; 3 days): dose response increase; also recorded: more potent response than HS
- level of ALP expression relative to BMP-2 alone (factor) ([5]; 3 days): 5
